Experimental data from paper PMC9763021, “Comprehensive Assessment of Biomolecular Interactions of Morpholine-Based Mixed Ligand Cu(II) and Zn(II) Complexes of 2,2′-Bipyridine as Potential Anticancer and SARS-CoV-2 Agents: A Synergistic Experimental and Structure-Based Virtual Screening” (Bioinorganic Chemistry and Applications, 2022).

Legend:
Aspergillus niger = test: Agar disc diffusion, strain H; assay type: cell-based; design: (inhibition %): concentration or dose not given beside the values; conditions: for diameter of the clear zone inhibition: control = 6 mm
Experimental: (§1) In-vitro antimicrobial properties were evaluated for all samples by the agar disc diffusion method towards different fungal and bacterial strains. Additionally, the reported inhibition zone values were comparatively analyzed with the standard antifungal drugs ketoconazole and amphotericin B as well as the standard antibiotic medications streptomycin and amikacin.
(§2) The current research has a curious focus on the in vitro antimicrobial properties of biological systems because these studies are crucial for developing effective antibacterial and antifungal medications. […] It can also be spelled out based on the chelation theory proposed by Overtone and Tweedy. Chelation theory points out that the partial exchanging of the positive charge of the metal center with donor moieties, and overlap of the ligand orbitals will reduce the greater degree of the metal ion's polarity, which ultimately rises the delocalization of π and d electrons over the full chelated ring system. By raising the size of the metal ion due to the retarding of polarization, chelation may also enhance the complexes' lipophilic characteristics, which further stimulate the lipid membrane permeability and break down the bacteria' enzymes responsible for cell wall formation, therefore slowing down the regular cell processes. By preventing the production of cell walls/proteins/DNA, including by obstructing folate metabolism and the cytoplasmic membrane, antimicrobial drugs frequently either fully eliminate microbes or only prevent their cell growth. Additionally, the samples' mode of action may be employed in disrupting the cell's respiration process by forming an H-bond during the morpholine-fused iminic group coordinated with the active metal center of its components, inhibiting proliferation of the cell. […] The difference in the antimicrobial efficacy of some of the compounds towards various microorganisms influences on the impermeability of the cells of the germs or the diversity of ribosomes of the microbes. The % of the inhibition of all substances is estimated from (45) (Table 9).
(§3) (A, B, C, D, and E are represented as gram negative bacteria species Escherichia coli, Salmonella enteric serovar typhi, Salmonella enteric serovar typhi, Pseudomonas aeruginosa, and Shigella flexneri, respectively. F & G are denoted as gram positive bacteria species Staphylococcus aureus and Bacillus cereus. H, I, and J are represented as fungal strains Aspergillus niger, Candida albicans, and Mucor indicus. Standard drugs for bacterial strains: Amikacin & Streptomycin Standard drugs for fungal strains: Ketoconazole and Amphotericin B. [Control (DMSO) = 6 mm].(44) Inhibition %=T–C/T×100, where T and C are represented as the diameter of microbial growth of the sample plates and the control plate (6 mm), respectively. Error limits ±2.5–5.0% (P ≤ 0.05).

Candida albicans = test: Agar disc diffusion, strain I; assay type: cell-based; design: (inhibition %): concentration or dose not given beside the values; conditions: for diameter of the clear zone inhibition: control = 6 mm
Experimental: as §1, §2, §3

Mucor indicus = test: Agar disc diffusion, strain J; assay type: cell-based; design: (inhibition %): concentration or dose not given beside the values; conditions: for diameter of the clear zone inhibition: control = 6 mm
Experimental: as §1, §2, §3

[1] = system: Salmonella enteric serovar typhi; test: Agar disc diffusion, strain C; assay type: cell-based
Experimental: as §1, §2, §3

Staphylococcus aureus = test: Agar disc diffusion, strain F; assay type: cell-based; design: (inhibition %): concentration or dose not given beside the values
Experimental: as §1, §2, §3

Bacillus cereus = test: Agar disc diffusion, strain G; assay type: cell-based; design: (inhibition %): concentration or dose not given beside the values
Experimental: as §1, §2, §3

[2] = system: Salmonella enteric serovar typhi; test: Agar disc diffusion, strain B; assay type: cell-based
Experimental: as §1, §2, §3

Pseudomonas aeruginosa = test: Agar disc diffusion, strain D; assay type: cell-based; design: (inhibition %): concentration or dose not given beside the values
Experimental: as §1, §2, §3

Shigella flexneri = test: Agar disc diffusion, strain E; assay type: cell-based; design: (inhibition %): concentration or dose not given beside the values
Experimental: as §1, §2, §3

Escherichia coli = test: Agar disc diffusion, strain A; assay type: cell-based; design: (inhibition %): concentration or dose not given beside the values
Experimental: as §1, §2, §3

[3] = Superoxide scavenging assay; assay type: biochemical; conditions: for % Inhibition superoxide: 590 nm
Experimental: (§4) All samples were evaluated for their scavenging ability with the help of UV-visible spectrophotometer at different concentrations of 40, 80, 120, 160, 200, and 240 μM [6, 28]. While performing the antioxidant properties for the DPPH, hydroxyl, superoxide, and nitric oxide radical scavenging, the absorbance at 517, 230, 590, and 546 nm, respectively, was closely observed. In addition, the observed IC50 values of all samples were compared with ascorbic acid.
A vital enzyme catalyst in the body's defence against free radicals, superoxide dismutase (SOD) quickly and efficiently reduces toxicity and cellular damage by exchanging superoxide with water (or) harmless molecules. The % of inhibition for all substances was analyzed at 590 nm. The outcomes were obtained in the subsequent order: (ascorbic acid) 84.85 > (1a) 67.17 > (2a) 58.18 > (HL) 50.42.

[4] = Nitric oxide scavenging assay; assay type: biochemical; conditions: for % Inhibition nitric oxide: 546 nm
Experimental: as §4
The diffusible nitric oxide free radical is a crucial chemical mediator, which assists in overcoming diverse chronological human diseases. The NO free radical scavenging potential for all test samples was also carried out at 546 nm. It monitored the alterations in electronic absorption intensity of the nitric oxide radical inhibition outcome concerning the sample concentrations. When the test sample concentration rises, the nitric oxide free inhibition effectiveness also increases. The measured % of nitric oxide radical scavenging capability for all samples at 240 μM was obtained in the subsequent order (ascorbic acid) 72.73 > (1a) 65.47 > (2a) 58.43 > (HL) 51.62.

[5] = DPPH radical scavenging assay; assay type: biochemical; conditions: for % Inhibition DPPH: 517 nm
Experimental: as §4
The colour of an aqueous or methanol solution changes from deep purple to pale yellow when DPPH, a stable chromogen free radical, combines with an antioxidant molecule, which means that DPPH quickly absorbs the hydrogen or electrons from the donor groups. In this case, for the baseline correction, a blank DPPH solution in the absence of a test compound was employed, and 517 nm (ε = 8320 M^−1·cm^−1) was attained to have a significant absorption maximum. […] The DPPH radicals are reduced by an antioxidant compound (AH), in which the reduction of electronic absorbance for each compound was vigilantly noted at 517 nm. The capacity to block radicals improves as the sample concentration increases. The assessed percentage of maximum inhibition for all substances was found at 240 μM in the subsequent order: (ascorbic acid) (85.65) > (1a) 68.64 > (2a) 59.55 > (HL) 52.45. […] Moreover, the % of scavenging or maximum inhibition for all substances is estimated with the aid of equation (44) (Table S14).(43) Scavanging%=A0−AS/A0×100

[6] = Hydroxyl radical scavenging assay; assay type: biochemical; conditions: for % Inhibition hydroxyl radical: 230 nm
Experimental: as §4
Hydrogen peroxide receives electrons from antioxidant molecules and then neutralizes them into a water molecule. ^●OH inhibition capability was determined from the % of inhibition for all test substances at 230 nm.

[7] = system: calf thymus deoxyribonucleic acid; test: DNA binding by viscometric (hydrodynamic) technique
Experimental: The titrations were performed for all compounds including EB (control) at 20, 40, 60, 80, and 100 μM concentrations. In the Ostwald viscometer, these substances were also separately treated with the calf thymus deoxyribonucleic acid solution (100 μM).
Hydrodynamic findings can be utilized to assess the alteration of DNA length and afford details on the binding tendency between small molecules and biomolecules. As a result of their sensitivity to DNA contour length changes, which implies that the average distance between each monomer (cl = 0.338 nm/bp for B-form DNA), the DNA binding properties of all test compounds were further validated by this method. According to the Lerman concept, interactions between small molecules and deoxyribonucleic acid via covalent and noncovalent bindings are often possible. When a chemical substance interacts with the deoxyribonucleic acid double helix, the contour length of DNA increases via intercalation and leads to an increase in the absolute viscosity. Meanwhile, if DNA viscosity is not affected during interactions, which leads to the responsible for the major/minor groove binding due to H-bond/Van der Waals interactions, electrostatic, partial, or nonclassical interaction modes. Therefore, analyzing the binding modes provides additional support for the findings as well as a crucial aspect of the conventional intercalation concept. In this case, it was observed that the absolute viscosity increased consistently along with the concentration of each substance at the fixed DNA concentration. The DNA must extend to facilitate the binding of ligands, which causes a considerable rise in DNA viscosity while small molecules intercalate into the DNA helix. According to equation (12), an increase in relative viscosity denotes an intercalation-induced lengthening of the deoxyribonucleic acid base pair. While adhering to the principle of excluding the nearest neighbors, intercalation entails inserting a planar molecule into a DNA base pair without rupturing the hydrogen bonds that hold the base pairs together. This causes a diminution in the DNA helical twist and an extension of the DNA. Moreover, a molecule can be presumed to bind to deoxyribonucleic acid by intercalation between base pairs if it causes lengthening and unwinding of the deoxyribonucleic acid base pairs. In this case, the relative viscosity of DNA gradually increases, while the […]. Moreover, the affinity interactions and their slope values were observed from the relative specific viscosity (η⁄η0)^1/3 plotted straight line contrasting [Compound]/[DNA], and absolute specific viscosity of deoxyribonucleic acid in the absence or presence of samples was evaluated using equation (12) (Table 3). […] The evaluated slope findings were in the subsequent sequence: (EB) 1.215 > (1a) 0.915 > (2a) 0.630 > (HL) 0.490 (Figure S21 and Table 3). […] Due to the existence of the 2,2′-bipyridine and morpholine-fused aromatic planar systems, compounds can interact with deoxyribonucleic acid robustly via intercalation. The outcomes were excellent in accordance with the observed outcomes of absorption spectral properties.(11) η/η0^1/3=tcomplex−t0/t0/tDNA−t0/t0, where η and η0 are represented as specific viscosity of DNA in the presence complex and specific viscosity of DNA alone, and t0, tDNA, and tcomplex are represented as the average flow time of the Tris-HCl buffer solution, the average flow time of DNA alone solution, and the average flow time of DNA interacted with the samples, respectively. Error limit is ±2.5% (P < 0.025).

Compound: C[C@@H]1[C@H](O)[C@@H](C)/C=C/C=C/C=C/C=C/C=C/C=C/C=C/[C@H](O[C@@H]2O[C@H](C)[C@@H](O)[C@H](N)[C@@H]2O)C[C@@H]2O[C@](O)(C[C@@H](O)C[C@@H](O)[C@H](O)CC[C@@H](O)C[C@@H](O)CC(=O)O[C@H]1C)C[C@H](O)[C@H]2C(=O)O [Amphotericin B, reference compound]
- (inhibition %) (Aspergillus niger): 60%
- diameter of the clear zone inhibition (Aspergillus niger): 15 mm
- (inhibition %) (Candida albicans): 65%
- diameter of the clear zone inhibition (Candida albicans): 17 mm
- (inhibition %) (Mucor indicus): 65%
- diameter of the clear zone inhibition (Mucor indicus): 17 mm

Compound: [H]/N=C(/N)N[C@H]1[C@H](O)[C@@H](O)[C@H](O[C@@H]2O[C@@H](C)[C@](O)(C=O)[C@H]2O[C@@H]2O[C@@H](CO)[C@H](O)[C@@H](O)[C@@H]2NC)[C@@H](N/C(N)=N\[H])[C@@H]1O [Streptomycin, reference compound]
- (inhibition %) [1]: 75%
- diameter of the clear zone inhibition ([1]; control = 6 mm): 24 mm
- (inhibition %) (Staphylococcus aureus): 71%
- diameter of the clear zone inhibition (Staphylococcus aureus; control = 6 mm): 21 mm
- (inhibition %) (Bacillus cereus): 71%
- diameter of the clear zone inhibition (Bacillus cereus; control = 6 mm): 21 mm
- (inhibition %) [2]: 77%
- diameter of the clear zone inhibition ([2]; control = 6 mm): 26 mm
- (inhibition %) (Pseudomonas aeruginosa): 71%
- diameter of the clear zone inhibition (Pseudomonas aeruginosa; control = 6 mm): 21 mm
- (inhibition %) (Shigella flexneri): 76%
- diameter of the clear zone inhibition (Shigella flexneri; control = 6 mm): 25 mm
- (inhibition %) (Escherichia coli; (T–C)/T×100): 75%
- diameter of the clear zone inhibition (Escherichia coli; control (DMSO) = 6 mm): 24 mm

Compound: O=C1O[C@H]([C@@H](O)CO)C(O)=C1O [Ascorbic acid, reference compound]
- IC50 [3]: 120 µM
- % Inhibition superoxide ([3]; 40 µM): 29.64%
- % Inhibition superoxide ([3]; 80 µM): 41.72%
- % Inhibition superoxide ([3]; 120 µM): 55.63%
- % Inhibition superoxide ([3]; 160 µM): 66.75%
- % Inhibition superoxide ([3]; 200 µM): 72.55%
- % Inhibition superoxide ([3]; 240 µM): 84.85%
- IC50 [4]: 160 µM
- % Inhibition nitric oxide ([4]; 40 µM): 28.55%
- % Inhibition nitric oxide ([4]; 80 µM): 35.75%
- % Inhibition nitric oxide ([4]; 120 µM): 43.65%
- % Inhibition nitric oxide ([4]; 160 µM): 52.68%
- % Inhibition nitric oxide ([4]; 200 µM): 63.72%
- % Inhibition nitric oxide ([4]; 240 µM): 72.73%
- IC50 [5]: 80 µM
- % Inhibition DPPH ([5]; 40 µM): 41.63%
- % Inhibition DPPH ([5]; 80 µM): 53.74%
- % Inhibition DPPH ([5]; 120 µM): 58.95%
- % Inhibition DPPH ([5]; 160 µM): 70.86%
- % Inhibition DPPH ([5]; 200 µM): 82.75%
- % Inhibition DPPH ([5]; 240 µM): 85.65%
- IC50 [6]: 160 µM
- % Inhibition hydroxyl radical ([6]; 40 µM): 20.73%
- % Inhibition hydroxyl radical ([6]; 80 µM): 36.46%
- % Inhibition hydroxyl radical ([6]; 120 µM): 47.87%
- % Inhibition hydroxyl radical ([6]; 160 µM): 59.65%
- % Inhibition hydroxyl radical ([6]; 200 µM): 65.64%
- % Inhibition hydroxyl radical ([6]; 240 µM): 78.83%

Compound: CC(=O)N1CCN(c2ccc(OCC3COC(Cn4ccnc4)(c4ccc(Cl)cc4Cl)O3)cc2)CC1 (stereo not drawn) [Ketoconazole, reference compound]
- (inhibition %) (Aspergillus niger): 63%
- diameter of the clear zone inhibition (Aspergillus niger): 16 mm
- (inhibition %) (Candida albicans): 67%
- diameter of the clear zone inhibition (Candida albicans): 18 mm
- (inhibition %) (Mucor indicus): 67%
- diameter of the clear zone inhibition (Mucor indicus): 18 mm

Compound: CC[n+]1c(-c2ccccc2)c2cc(N)ccc2c2ccc(N)cc21 [EB (control), Ethidium bromide, reference compound]
- Slope of (η/η0)^1/3 vs [Compound]/[DNA] [7]: 1.215
- Relative specific viscosity (η/η0)^1/3 ([7]; [complex]/[DNA] = 0.2): 1.01
- Relative specific viscosity (η/η0)^1/3 ([7]; [complex]/[DNA] = 0.4): 1.35
- Relative specific viscosity (η/η0)^1/3 ([7]; [complex]/[DNA] = 0.6): 1.63
- Relative specific viscosity (η/η0)^1/3 ([7]; [complex]/[DNA] = 0.8): 1.82
- Relative specific viscosity (η/η0)^1/3 ([7]; [complex]/[DNA] = 1.0): 1.99
